Laboratory results published in patent publication US9968619B2, “Method of treating triple-negative breast cancer using thienotriazolodiazepine compounds” (ONCOETHIX GMBH, priority 2014, dated 2018).

Assays:
[1] = test system: MDA-MB-231; experiment: MTT proliferation assay, MDA-MB-231; settings: Homo sapiens
[2] = test system: HCC1937; experiment: MTT proliferation assay, HCC1937; settings: Homo sapiens
[3] = test system: MDA-MB-468; experiment: MTT proliferation assay, MDA-MB-468; settings: for Emax / GI50: Homo sapiens
[4] = test system: HCC1937; experiment: Cell counting proliferation, HCC1937; format: cell-based; settings: Homo sapiens
[5] = test system: HCC1937; experiment: Western blotting and RT-PCR expression, HCC1937; format: cell-based, human; settings: 650 nM; 24, 48 and 72 h
Excerpt: (§1) Logarithmic transformation of the variable was applied before the ANOVA test if required. As shown in FIG. 16A-C, Western blots are representative of three independent experiments where each bar and vertical line represents the mean±SEM, respectively (n=3). As shown in FIG. 15D-15G, C-MYC protein and mRNA levels were unchanged by Compound (1-1) treatment in all the three cell lines.
(§2) CDKN1A (p21) mRNA levels were increased in all three cell models (p<0.001). […] Significant differences in the mRNA levels were determined by one-way ANOVA test (p<0.01) followed by SNK a posteriori test (*p<0.05, **p<0.01, […]). Logarithmic transformation of the variable was applied before the ANOVA test if required. Each bar and vertical line represents the mean±SEM, respectively (n=3). Western blots are representative of 3 independent experiments.

[6] = test system: MDA-MB-231; experiment: Cell cycle after drug washout, MDA-MB-231; format: cell-based, human; settings: 75 nM for 72 h, then 48 h of drug washout
Experimental: (§3) Cells were staining with propidium iodide then analyzed using a FACScan flow cytometer. […] After 72 h of treatment, control and treated cells were washed with PBS and re-incubated with compound (1-1) free medium (drug washout). As show in FIG. 14A-14C, significant differences in the percentage of compound (1-1)-treated cells in the G1, S and G2/M phases with respect to untreated controls were determined by a one-way ANOVA test (p<0.001) followed by an SNK a posteriori test. After washout, significant differences in the percentage of cells in a given cell cycle phase between control and pre-treated cells were determined with the Student t-test for independent samples with equal or different variance, as appropriate. * , × and # means significant difference between treated cells respect and controls in G1 phase (*p<0.05, **p<0.01), G2/M phase (×p<0.05, ××p<0.01) and S phase p<0.05, ## p<0.01), respectively. Each bar and vertical line represents the mean±SEM, respectively (n≥3).

[7] = test system: MDA-MB-231 nude mice-derived xenografts; experiment: MDA-MB-231 xenografts in nude mice; format: in vivo
Experimental: In vivo assays were performed in 8-week-old female MDA-MB-231 nude mice-derived xenografts. 10×10^6 cells were injected, when tumor volume reached 100 mm^3, mice were randomized to 4 groups (n=9): 1) vehicle; 2) 50 mg/kg Compound (1-1) (BID, po); 3) 2 mg/kg of everolimus (3 time a week, ip); 4) combination Compound (1-1) and everolimus; 4 weeks treatment.
Symbols with • indicate significant differences between treatment vs. vehicle-treated mice (p<0.05). * indicates a significant difference in the tumor mass between the combination treated animals and the two single agent groups (*p<0.05, **p<0.01 and ***p<0.001). Results represent the mean±SEM (during the treatment period, n=9). Variation of animal body weight during treatment is illustrated in FIG. 18B. […] The T/C ratio was 39% after 10 days of combination treatment, with an optimal value of 21% on day 23. Compound (1-1) can be used for the treatment of TNBC, either alone or in combination with mTOR inhibitors.

[8] = test system: MDA-MB-231; experiment: Western blotting and RT-PCR expression, MDA-MB-231; format: cell-based, human; settings: 75 nM; 24, 48 and 72 h
Excerpt: as §1, §2

[9] = Pharmacokinetics and oral bioavailability in dogs; format: in vivo; settings: male, beagle, plasma; dog; 1 mg/kg IV; solution in water:ethanol:PEG400 (60:20:20)
Experimental: Blood samples were collected from the jugular vein of each animal at 0 (pre-dose), 5, 15, and 30 minutes and 1, 2, 4, 8, 12, and 24 hours following intravenous administration and at 0 (pre-dose), 15 and 30 minutes and 1, 2, 4, 8, 12, and 24 hours following oral gavage administration. The amount of compound (1-1) present in each sample was detected using a qualified LC-MS/MS method with a lower limit of quantification of 0.5 ng/mL. The area under the plasma concentration-time curve (AUC) was determined by use of the linear trapezoidal rule up to the last measurable concentration without extrapolation of the terminal elimination phase to infinity. The elimination half-life (t1/2) was calculated by least-squares regression analysis of the terminal linear part of the log concentration-ime curve. The maximum plasma concentration (Cmax) and the time to Cmax (tmax) were derived directly from the plasma concentration data. The oral bioavailability (F) was calculated by dividing the dose normalized AUC after oral administration by the dose normalized AUC after intravenous administration and reported as percentages (%).

[10] = test system: MDA-MB-468; experiment: Cell cycle after drug washout, MDA-MB-468; format: cell-based, human; settings: 650 nM for 72 h, then drug washout
Experimental: as §3

[11] = MDA-MB-231, 48 h, 48 h exposure, hypoxia (0.1% O2)
[12] = MDA-MB-231, 48 h, 48 h exposure, normoxia
[13] = MDA-MB-231, 72 h, 72 h exposure, hypoxia (0.1% O2)
[14] = MDA-MB-231, 72 h, 72 h exposure, normoxia
[15] = HCC1937, 48 h, 48 h exposure, hypoxia (0.1% O2)
[16] = HCC1937, 48 h, 48 h exposure, normoxia
[17] = HCC1937, 72 h, 72 h exposure, hypoxia (0.1% O2)
[18] = HCC1937, 72 h, 72 h exposure, normoxia
[19] = MDA-MB-468, 48 h, 48 h exposure, normoxia
[20] = MDA-MB-468, 72 h, 72 h exposure, hypoxia (0.1% O2)
[21] = Compound (1-1) 50 mg/kg BID po, everolimus 2 mg/kg 3 time a week ip, 4 weeks treatment

Question: Which Emax [1, 11] does the source give for Cc1sc2c(c1C)C(c1ccc(Cl)cc1)=N[C@@H](CC(=O)Nc1ccc(O)cc1)c1nnc(C)n1-2 [Compound (1-1), 2-[(6S)-4-(4-chlorophenyl)-2,3,9-trimethyl-6H-thienol[3,2-f]-[1,2,4]triazolo[4,3-a][1,4]diazepin-6-yl]-N-(4-hydroxyphenyl)acetamide dihydrate] here?
Answer: The Emax was 68%.

Question: And the GI50 [1, 11]?
Answer: Its GI50 is 63.3 nM.

Question: What about the Emax [1, 12] of the same compound?
Answer: Its Emax is 71%.

Question: What about the GI50 [1, 12] of the same compound?
Answer: Its GI50 is 132 nM.

Question: And the Emax [1, 13]?
Answer: Its Emax is 83%.

Question: And the GI50 [1, 13]?
Answer: Its GI50 is 48.2 nM.

Question: And the Emax [1, 14]?
Answer: The Emax was 83%.

Question: And the GI50 [1, 14]?
Answer: Its GI50 is 81.7 nM.

Question: And the Emax [2, 15]?
Answer: Its Emax is 60%.

Question: And the GI50 [2, 15]?
Answer: Its GI50 is 23.1 nM.

Question: What about the Emax [2, 16] of the same compound?
Answer: The Emax was 41%.

Question: What about the GI50 [2, 16] of the same compound?
Answer: The GI50 was 110 nM.

Question: And the Emax [2, 17]?
Answer: The Emax was 74%.

Question: And the GI50 [2, 17]?
Answer: Its GI50 is 29 nM.

Question: What about the Emax [2, 18] of the same compound?
Answer: The Emax was 51%.

Question: What about the GI50 ([2]; HCC1937, 72 h, 72 h exposure, normoxia, * = apparent value) of the same compound?
Answer: Its GI50 is 81.9 nM.

Question: And the Emax ([3]; MDA-MB-468, 48 h, 48 h exposure, hypoxia (0.1% O2))?
Answer: The Emax was 53%.

Question: What about the GI50 ([3]; MDA-MB-468, 48 h, 48 h exposure, hypoxia (0.1% O2), * = apparent value) of the same compound?
Answer: The GI50 was 258 nM.

Question: And the Emax [3, 19]?
Answer: Its Emax is less than 10%.

Question: What about the GI50 [3, 19] of the same compound?
Answer: The GI50 was greater than 6000 nM.

Question: And the Emax [3, 20]?
Answer: Its Emax is 77%.

Question: What about the GI50 [3, 20] of the same compound?
Answer: Its GI50 is 296 nM.

Question: What about the Emax ([3]; MDA-MB-468, 72 h, 72 h exposure, normoxia) of the same compound?
Answer: Its Emax is 42%.

Question: And the GI50 ([3]; MDA-MB-468, 72 h, 72 h exposure, normoxia, * = apparent value)?
Answer: Its GI50 is 448 nM.

Question: And the “effect of hypoxia on antiproliferative activity” value ([3]; hypoxia (0.1% O2) vs normoxia, MTT assay and cell counting)?
Answer: Its value is “significantly (p<0.05) increased”.

Question: And the Emax [4, 15]?
Answer: Its Emax is 27%.

Question: And the GI50 [4, 15]?
Answer: Its GI50 is greater than 6000 nM.

Question: And the GI50 [4, 16]?
Answer: The GI50 was greater than 6000 nM.

Question: And the Emax ([4]; HCC1937, 48 h, 48 h exposure, normoxia, percent with respect to control untreated cells)?
Answer: The Emax was 31%.

Question: What about the Emax [4, 17] of the same compound?
Answer: The Emax was 54%.

Question: What about the GI50 [4, 17] of the same compound?
Answer: Its GI50 is 247 nM.

Question: And the Emax [4, 18]?
Answer: Its Emax is 70%.

Question: And the GI50 [4, 18]?
Answer: Its GI50 is 262 nM.

Question: And the “mRNA levels of BRD3” value [5]?
Answer: The value was “reduced”.

Question: And the “cell cycle pattern after drug washout” value [6]?
Answer: The value was “recovered the control cell cycle pattern”.

Question: What about the body weight ([7]; 50 mg/kg BID po, after 19 days of treatment) of the same compound?
Answer: Its body weight is “without body weight loss”.

Question: And the “best T/C %” value [7, 21]?
Answer: Its value is 40.7%.

Question: What about the “tumor mass with respect to vehicle-treated mice” value [7, 21] of the same compound?
Answer: Its value is “significant (p<0.05) reduction”.

Question: And the BRD2 levels [8]?
Answer: Its BRD2 levels is “increased”.

Question: And the Cmax [9]?
Answer: Its Cmax is 0.769 ng/mL.

Question: And the “cell cycle pattern after drug washout” value [10]?
Answer: The value was “substantial (p<0.05) accumulation of cells in G2/M phase”.
